Test results reported in US20260138948A1, “N-SUBSTITUTED INDOLES AS 5-HYDROXYTRYPTAMINE (5-HT) SEROTONIN RECEPTOR AGONISTS AND ANTAGONISTS” (Terran Biosciences Inc., priority 2021, published 2026).

Columns and labels:
5-HT2B receptor = molecular target: T1, 5-HT2B receptor (Homo sapiens, UniProt P41595); experiment: Calcium mobilization assay, agonist format, 5-HT2B; format: cell-based; details: % activity relative to control ligand, read-out: 5-HT2B agonist efficacy @5 µM
T1 construct: host or cells: unnamed cell lines
Method: (§1) Protocol—in vitro testing at select 5-hydroxytryptamine (5-HT; serotonin) receptors was conducted.
(§2) • 1. Cell lines were expanded from freezer stocks according to standard procedures. • 2. Cells were seeded in a total volume of 20 μL into black-walled, clear-bottom, Poly-D-lysine coated 384-well microplates and incubated at 37° C. for the appropriate time prior to testing.
(§3) • 1. Assays were performed in 1× Dye Loading Buffer consisting of 1× Dye, 1× Additive A and • 2.5 mM Probenecid in HBSS/20 mM Hepes. Probenicid was prepared fresh. • 2. Cells were loaded with dye prior to testing. Media was aspirated from cells and replaced with 20 μL Dye Loading Buffer. • 3. Cells were incubated for 30-60 minutes at 37° C.
(§4) • 1. For agonist determination, cells were incubated with sample to induce response. • 2. After dye loading, cells were removed from the incubator and 10 μL HBSS/20 mM Hepes was added. 3× vehicle was included in the buffer when performing agonist dose curves to define the EC80 for subsequent antagonist assays. Cells were incubated for 30 minutes at room temperature in the dark to equilibrate plate temperature. • 3. Intermediate dilution of sample stocks was performed to generate 4× sample in assay buffer. • 4. Compound agonist activity was measured on a FLIPR Tetra (MDS). Calcium mobilization was monitored for 2 minutes and 10 μL 4× sample in HBSS/20 mM Hepes was added to the cells 5 seconds into the assay.
(§5) • 1. Compound activity was analyzed using CBIS data analysis suite (ChemInnovation, CA). • 2. For agonist mode assays, percentage activity is calculated using the following formula: % Activity=100%×(mean RFU of test sample−mean RFU of vehicle control)/(mean MAX RFU control ligand −mean RFU of vehicle control). • 3. For positive allosteric mode assays, percentage modulation was calculated using the following formula: % Modulation=100%×((mean RFU of test sample−mean RFU of EC20 control)/(mean RFU of MAX control ligand −mean RFU of EC20 control)). • 4. For antagonist and negative allosteric modulation mode assays, percentage inhibition is calculated using the following formula: % Inhibition=100%×(1−(mean RFU of test sample−mean RFU of vehicle control)/(mean RFU of EC80 control−mean RFU of vehicle control)).

[1] = Metabolic stability in human liver microsomes; format: in vitro ADME; details: for half-life at 1 μM / microsomal CLint at 1 μM / CLint scaled at 1 μM: liver microsomes (pooled); for half-life at 1 μM: human liver microsomes 0.5 mg/mL, test compound 1.0 μM, 37° C., NADPH; for microsomal CLint at 1 μM: intrinsic clearance = 0.693/T1/2/mg microsome protein per mL, read-out: CLint(mic); for CLint scaled at 1 μM: human, scaled from CLint(mic) with 45 mg microsomal protein/g liver and 20 g liver/kg
Method: The test compound at 1.0 μM in singlet, or positive controls including Testosterone (CYP3A4 substrate), Propafenone (CYP2D6 substrate) or Diclofenac (CYP2C9 substrate) was incubated with the liver microsomes (Corning, Xenotech, or other credible vendor, pooled from multiple donors) at 0.5 mg/mL, respectively. The mixture was warmed up at 37° C. for 10 minutes and the reactions were initiated by the addition of a NADPH regenerating system (˜1.0 mM). The test compound incubated with the liver microsomes at 37° C. without the NADPH regenerating system served as the negative control reaction.
The reaction samples were removed at multiple time points (such as 0, 5, 15, 30, 45 and 60 minutes) and the sample without NADPH (NCF) was removed at 60 minutes. All the samples were immediately mixed with cold acetonitrile containing internal standard (IS) to stop the reaction.
Samples were analyzed by LC/MS/MS and the disappearance of test compound were assessed base on peak area ratios of analyte/IS (no standard curve). The microsomal intrinsic clearance and T1/2 values were calculated using the following equation: […]
The microsomal intrinsic clearance and T1/2 values were calculated using the following equation: […]
In these experiments the comparator compound was a suitable reference standard. In one embodiment the comparator compound was (R)-1-(5-methoxy-1H-indol-1-yl)-N,N-dimethylpropan-2-amine.

5-HT2A receptor [2] = molecular target: T2, 5-HT2A receptor (Homo sapiens, UniProt P28223); experiment: Calcium mobilization assay, antagonist format, 5-HT2A; format: cell-based; details: @100 nM; agonist challenge at EC80
T2 construct: host or cells: unnamed cell lines
Method: as §1, §2, §3
(§6) • 1. For antagonist determination, cells were pre-incubated with sample followed by agonist challenge at the EC80 concentration. • 2. Intermediate dilution of sample stocks was performed to generate 3× sample in assay buffer. • 3. After dye loading, cells were removed from the incubator and 10 μL 3× sample was added. Cells were incubated for 30 minutes at room temperature in the dark to equilibrate plate temperature. Vehicle concentration was 1%. • 4. Compound antagonist activity was measured on a FLIPR Tetra (MDS). Calcium mobilization was monitored for 2 minutes and 10 μL EC80 agonist in HBSS/20 mM Hepes was added to the cells 5 seconds into the assay.
as §5
Compounds were evaluated as 5-HT2A antagonists at 100 nM (one hundred nanomolar), or may be evaluated at a higher concentration. For research comparative purposes, a literature compound—(R)-1-(5-methoxy-1H-indol-1-yl)-N,N-dimethylpropan-2-amine (AAZ-A-154) (Cell 2021, 184, 2779-2792.e18)—was included in the screening assays. Additionally, 5-hydroxytryptamine/serotonin (5-HT) was included in the screening assay as a positive control agonist, and Altanserin HCl was included as a 5-HT2A antagonist positive control.

5-HT2A receptor [3] = molecular target: T2, 5-HT2A receptor; experiment: Calcium mobilization assay, agonist format, 5-HT2A; format: cell-based; details: % activity relative to control ligand, read-out: 5-HT2A agonist efficacy @10 µM
Method: as §1, §2, §3, §4, §5

5-HT2C receptor = molecular target: T3, 5-HT2C receptor (Homo sapiens, UniProt P28335); experiment: Calcium mobilization assay, antagonist format, 5-HT2C; format: cell-based; details: @10 µM; agonist challenge at EC80
T3 construct: host or cells: unnamed cell lines
T3 sequence (P28335 33-458): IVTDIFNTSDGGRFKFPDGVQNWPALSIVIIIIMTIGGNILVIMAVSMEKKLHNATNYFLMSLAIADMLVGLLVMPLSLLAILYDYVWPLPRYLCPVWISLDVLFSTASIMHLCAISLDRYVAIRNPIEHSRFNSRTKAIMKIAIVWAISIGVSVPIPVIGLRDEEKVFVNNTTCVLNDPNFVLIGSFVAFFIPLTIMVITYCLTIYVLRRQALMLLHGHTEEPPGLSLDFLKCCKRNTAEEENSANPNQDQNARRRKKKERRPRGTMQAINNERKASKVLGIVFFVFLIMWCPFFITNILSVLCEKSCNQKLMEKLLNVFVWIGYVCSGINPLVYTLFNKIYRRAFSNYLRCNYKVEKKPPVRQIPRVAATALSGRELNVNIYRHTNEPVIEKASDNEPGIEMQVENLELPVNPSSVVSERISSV
Method: as §1, §2, §3, §6, §5
[…] For research comparative purposes, a literature compound—(R)-1-(5-methoxy-1H-indol-1-yl)-N,N-dimethylpropan-2-amine (AAZ-A-154) (Cell 2021, 184, 2779-2792.e18)—was included in the screening assays. Additionally, 5-hydroxytryptamine/serotonin (5-HT) was included in the screening assay as a positive control agonist, and SB242084 was used in the screening assay as a literature 5-HT2C antagonist positive control. […] Compounds 2, 3 and 93 each achieved greater than 75% antagonism of the 5-HT2C receptor, with compounds 3 and 93 achieving approximately 98% and 97% antagonism, respectively.

C57BL/6J mice = experiment: Head-twitch response (HTR) in mice; format: in vivo, mouse; details: 10 mg/kg ip, male C57BL/6J mice, 40 min post-dose; FIGS. 2 and 3
Method: Head-Twitch Response (HTR). The head-twitch response assay is performed as is known to those of skill in the art using both male and female C57BL/6J mice (3 per treatment). The mice are obtained and are approximately 8 weeks old at the time of the experiments. Compounds are administered via intraperitoneal injection (5 mL/kg) using 0.9% saline as the vehicle. As a positive control, 5-MeO-DMT fumarate (2:1 amine/acid) was utilized. Behavior was videotaped, later scored by two blinded observers, and the results were averaged (Pearson correlation coefficient=0.93).
24 Male C57BL/6J mice (approximately 25 g) were group housed in a stock room. Animals were maintained under a 12 h light/dark cycle, at 23° C. with humidity controlled according to Home Office regulations.
Compounds 1, 2, 4, 151, 93, AAZ literature compound and 5-MeO-DMT (all compounds supplied as free bases) were each formulated in DMSO:saline [10:90] at a concentration of 2 mg/mL to give a dose of 10 mg/kg when administered ip in a 5 mL/kg dosing volume. […]
At T=0 h, groups of 3 mice were dosed intraperitoneally with either Vehicle, Compound 1, Compound 2, Compound 4, Compound 151, Compound 93, AAZ literature compound, or 5-MeO-DMT each at 10 mg/kg. Following dosing, mice were replaced into the observation cages and head twitch behavior was monitored for 40 min after agonist dosing.

5HT2A sensor = details: general statement on known hallucinogens and non-hallucinogenic congeners; cited from earlier work

T2 sequence (P28223 whole entry): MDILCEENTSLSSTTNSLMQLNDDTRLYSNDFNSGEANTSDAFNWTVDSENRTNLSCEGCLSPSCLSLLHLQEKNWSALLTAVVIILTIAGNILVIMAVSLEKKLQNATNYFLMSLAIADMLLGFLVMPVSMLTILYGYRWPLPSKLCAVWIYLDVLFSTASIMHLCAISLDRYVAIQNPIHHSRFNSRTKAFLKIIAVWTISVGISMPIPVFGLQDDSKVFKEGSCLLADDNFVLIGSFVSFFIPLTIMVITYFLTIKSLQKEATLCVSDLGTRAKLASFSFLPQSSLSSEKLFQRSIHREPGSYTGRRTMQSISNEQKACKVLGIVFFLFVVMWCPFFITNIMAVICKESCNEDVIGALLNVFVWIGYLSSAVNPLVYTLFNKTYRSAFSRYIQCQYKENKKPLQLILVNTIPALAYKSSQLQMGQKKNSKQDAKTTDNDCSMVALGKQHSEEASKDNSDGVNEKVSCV
T1 sequence (P41595 whole entry): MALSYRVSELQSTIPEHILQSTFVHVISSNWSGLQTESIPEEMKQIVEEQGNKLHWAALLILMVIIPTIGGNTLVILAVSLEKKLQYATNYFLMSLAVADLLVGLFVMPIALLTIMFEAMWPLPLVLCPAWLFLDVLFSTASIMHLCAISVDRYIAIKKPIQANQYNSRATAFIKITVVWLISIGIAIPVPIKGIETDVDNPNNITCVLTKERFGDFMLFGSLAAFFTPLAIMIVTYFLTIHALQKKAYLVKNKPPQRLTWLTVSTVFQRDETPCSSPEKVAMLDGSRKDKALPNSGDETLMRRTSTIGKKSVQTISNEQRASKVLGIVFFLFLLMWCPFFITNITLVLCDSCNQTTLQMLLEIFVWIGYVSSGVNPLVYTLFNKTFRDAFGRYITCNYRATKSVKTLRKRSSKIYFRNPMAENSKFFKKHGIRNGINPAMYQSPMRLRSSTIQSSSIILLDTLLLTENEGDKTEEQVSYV

Row | SMILES | activation at 5 µM (5-HT2B receptor) | half-life at 1 μM [1] | microsomal CLint at 1 μM ([1]; human liver microsomes) | CLint scaled at 1 μM [1] | inhibition at 0.1 µM (5-HT2A receptor [2]) | activation at 10 µM (5-HT2A receptor [3]) | inhibition at 10 µM (5-HT2C receptor) | difference in half-life and intrinsic clearance compared with reference compound (R)-1-(5-methoxy-1H-indol-1-yl)-N,N-dimethylpropan-2-amine ([1]; human liver microsomes, comment on Table 2) | head-twitch response compared to placebo (C57BL/6J mice) | activation of the 5HT2A sensor assay in agonist mode (5HT2A sensor)
1 | COc1ccc2c(ccn2C[C@@H](C)N(C)C)c1 [AAZ-A-154, (R)-1-(5-methoxy-1H-indol-1-yl)-N,N-dimethylpropan-2-amine, reference compound] | -2.9% | 1.42 h | 16.4 µL/min/mg | 14.8 mL/min/kg | 3.2% | 1% | 35% | – | – | –
2 | C[C@H](Cn1ccc2cc(S(=O)(=O)C3CC3)ccc21)N(C)C [Compound 4, (2R)-1-(5-cyclopropylsulfonylindol-1-yl)-N,N-dimethyl-propan-2-amine] | -0.6% | – | – | – | -9.1% | -1.5% | 6.2% | – | – | –
3 | [2H]C([2H])([2H])[C@@]([2H])(N(C)C)C([2H])([2H])n1ccc2cc(OC)ccc21 [Compound 5, (2R)-1,1,1,2,3,3-hexadeuterio-3-(5-methoxyindol-1-yl)-N,N-dimethyl-propan-2-amine] | 3% | 1.59 h | 15 µL/min/mg | 13.5 mL/min/kg | -2.7% | 2% | 38.1% | significant and beneficial differences in half-life and intrinsic clearance | – | –
4 | COc1ccc2[nH]cc(CCN(C)C)c2c1 [Compound 5-MeO-DMT] | – | – | – | – | – | – | – | – | produced significant increases in head-twitch | activate the 5HT2A sensor assay in agonist mode
